In PubChem BioAssay AID190 (DTP/NCI, 2004):
Where “and” joins values, the source holds several entries; their conditions need not be identical. Identical values can stand only once. Inconclusive results and toxic doses are left out. How the source made its calls: active means survival T/C of 150% or more; inactive means T/C below 125% in these data.

System: AKR/Lw mice, AKR lymphoma ip, median survival T/C
Experiment: NCI In Vivo Anticancer Drug Screen. Data for tumor model Lymphoma AKR (Transplanted) (intraperitoneal) in AKR/Lw mice
Conditions: endpoint: median survival time, higher = longer survival
Protocol: The antitumor activity of compounds was measured in mice bearing transplantable tumors. Survival or tumor size were measured and the results are expressed as the measurement made in the treated group (T) divided by the measurement made in the vehicle treated control group (C). The tumor model used in this assay is Lymphoma AKR (Transplanted) (intraperitoneal) in AKR/Lw mice

[1] = dose: 100.0 mg/kg/injection, schedule: Q01DX001 (ip), vehicle: Klucel (hydroxypropylcellulose) (HPC)
[2] = dose: 200.0 mg/kg/injection, schedule: Q01DX001 (ip), vehicle: Klucel (hydroxypropylcellulose) (HPC)
[3] = dose: 400.0 mg/kg/injection, schedule: Q01DX001 (ip), vehicle: Klucel (hydroxypropylcellulose) (HPC)

Measured: T/C

C[N+]1(C)Cc2ccccc2-c2ccccc2C1
inactive: dose: 50.0 mg/kg/injection, schedule: Q01DX001 (ip), vehicle: saline 94 % of control

COc1cc([C@@H]2c3cc4c(cc3C[C@H]3COC(=O)[C@@H]32)OCO4)cc(OC)c1OC
inactive: dose: 5.0 mg/kg/injection, schedule: Q01DX009 (ip), vehicle: Klucel (hydroxypropylcellulose) (HPC) 107 % of control

NC(=O)c1[nH]nc(C2OC(CO)C(O)C2O)c1O (stereo unspecified)
inactive: dose: 0.07 mg/kg/injection, schedule: Q01DX009 (ip), vehicle: saline 86 % of control | dose: 0.25 mg/kg/injection, schedule: Q04DX003 (ip), vehicle: saline 105 % of control | dose: 0.5 mg/kg/injection, schedule: Q04DX003 (ip), vehicle: saline 105 % of control | dose: 0.75 mg/kg/injection, schedule: Q04DX003 (ip), vehicle: saline 88 % of control | dose: 1.0 mg/kg/injection, schedule: Q04DX003 (ip), vehicle: saline 90 % of control | dose: 7.5 micrograms/kg/injection, schedule: Q01DX009 (ip), vehicle: saline 110 % of control | dose: 15.0 micrograms/kg/injection, schedule: Q01DX009 (ip), vehicle: saline 121 % of control | dose: 30.0 micrograms/kg/injection, schedule: Q01DX009 (ip), vehicle: saline 103 % of control | dose: 60.0 micrograms/kg/injection, schedule: Q01DX009 (ip), vehicle: saline 121 % of control

COC(=O)C1CC2C(Cl)=C(Cl)C1(Cl)C2(Cl)Cl (stereo unspecified)
inactive: dose: 25.0 mg/kg/injection, schedule: Q04DX003 (ip), vehicle: saline 108 % of control | dose: 50.0 mg/kg/injection, schedule: Q04DX003 (ip), vehicle: saline 100 % of control | dose: 100.0 mg/kg/injection, schedule: Q01DX001 (ip), vehicle: saline 96 % of control | dose: 100.0 mg/kg/injection, schedule: Q04DX003 (ip), vehicle: saline 95 % of control | dose: 200.0 mg/kg/injection, schedule: Q01DX001 (ip), vehicle: saline 105 % of control | dose: 400.0 mg/kg/injection, schedule: Q01DX001 (ip), vehicle: saline 103 % of control

OCC1C(CO)C2(Cl)C(Cl)=C(Cl)C1(Cl)C2(Cl)Cl (stereo unspecified)
inactive: [1] 100 % of control | [2] 93 % of control | [3] 91 % of control

CCCn1c(=S)[nH]c2ccccc2c1=O
inactive: [1] 103 % of control | [2] 94 % of control | [3] 100 % of control

Nc1n[nH]c(N)n1
inactive: dose: 37.5 mg/kg/injection, schedule: Q06HX012 (ip), vehicle: saline 96 % of control | dose: 37.5 mg/kg/injection, schedule: Q06HX016 (ip), vehicle: saline 100 % of control | dose: 50.0 mg/kg/injection, schedule: Q01DX010 (ip), vehicle: saline 106 % of control | dose: 75.0 mg/kg/injection, schedule: Q06HX008 (ip), vehicle: saline 100 % of control | dose: 75.0 mg/kg/injection, schedule: Q06HX012 (ip), vehicle: saline 93 % of control | dose: 75.0 mg/kg/injection, schedule: Q06HX016 (ip), vehicle: saline 96 % of control | dose: 100.0 mg/kg/injection, schedule: Q01DX010 (ip), vehicle: saline 103 % of control | dose: 125.0 mg/kg/injection, schedule: Q06HX004 (ip), vehicle: saline 116 % of control | dose: 150.0 mg/kg/injection, schedule: Q01DX009 (ip), vehicle: saline 103 % of control | dose: 150.0 mg/kg/injection, schedule: Q06HX008 (ip), vehicle: saline 93 % of control | dose: 150.0 mg/kg/injection, schedule: Q06HX012 (ip), vehicle: saline 110 % of control | dose: 150.0 mg/kg/injection, schedule: Q06HX016 (ip), vehicle: saline 103 % of control | dose: 175.0 mg/kg/injection, schedule: Q01DX010 (ip), vehicle: saline 109 % of control | dose: 200.0 mg/kg/injection, schedule: Q04DX003 (ip), vehicle: saline 106 % of control | dose: 250.0 mg/kg/injection, schedule: Q01DX010 (ip), vehicle: saline 112 % of control | dose: 250.0 mg/kg/injection, schedule: Q06HX004 (ip), vehicle: saline 90 % of control and 92 % of control and 119 % of control | dose: 300.0 mg/kg/injection, schedule: Q01DX009 (ip), vehicle: saline 100 % of control | dose: 300.0 mg/kg/injection, schedule: Q06HX008 (ip), vehicle: saline 107 % of control | dose: 300.0 mg/kg/injection, schedule: Q06HX012 (ip), vehicle: saline 100 % of control | dose: 375.0 mg/kg/injection, schedule: Q01DX010 (ip), vehicle: saline 116 % of control | dose: 400.0 mg/kg/injection, schedule: Q04DX003 (ip), vehicle: saline 110 % of control | dose: 450.0 mg/kg/injection, schedule: Q06HX008 (ip), vehicle: saline 107 % of control | dose: 450.0 mg/kg/injection, schedule: Q06HX012 (ip), vehicle: saline 92 % of control | dose: 500.0 mg/kg/injection, schedule: Q06HX004 (ip), vehicle: saline 88 % of control and 116 % of control | dose: 530.0 mg/kg/injection, schedule: Q04DX003 (ip), vehicle: saline 109 % of control | dose: 675.0 mg/kg/injection, schedule: Q06HX012 (ip), vehicle: saline 107 % of control | dose: 800.0 mg/kg/injection, schedule: Q04DX003 (ip), vehicle: saline 121 % of control | dose: 1000.0 mg/kg/injection, schedule: Q06HX008 (ip), vehicle: saline 92 % of control
